Experimental data as given in a melting point compilation (Tetko et al.).

Row | Compound | melting point
1 | CC1CCC(C)(COC(=O)c2ccc(N)cc2)C1(C)C (stereo unspecified) | 74 °C
2 | N#CC(CCN1CCC(C(N)=O)(N2CCCCC2)CC1)(c1ccccc1)c1ccccc1 | 150 °C
3 | O=C(NCNN(CNC(=O)c1ccccc1)CNC(=O)c1ccccc1)c1ccccc1 | 123 to 125 °C
4 | CC(=O)OC1CC[C@@]2(C)C(CC[C@@H]3[C@@H]2CC[C@@]2(C)[C@H]3CC[C@]2(O)C#Cc2ccccc2)C1 (stereo partly specified) | 170 to 171 °C
5 | FC(F)(F)C(F)(F)C(F)(F)N(C(F)(F)C(F)(F)C(F)(F)F)C(F)(F)C(F)(F)C(F)(F)F | -52 °C
6 | COc1cc2cncc(Cc3ccccc3)c2cc1O | 193 °C
7 | Cc1ccc2c(c1)CCCC2 | -40 °C
8 | N[C@H](C(=O)O)C1CCCCC1 | 256 °C
9 | Cc1ncc(COP(=O)(O)O)c(C=O)c1O | 255 °C
10 | Cn1ccc(-c2ccc(Br)cc2)n1 | 79.5 to 81 °C
11 | Cc1cccc(C)c1NC(=O)c1cnc(C(C)(C)C)c(Cl)n1 | 146 °C
12 | Cc1ncc(CO)c(C(=O)O)c1O | 248 °C
13 | O=C(Nc1ccccc1Br)Nc1ccccc1Br | 235 to 237 °C
14 | O=C(O)COc1ccc(Cl)cc1CO | 141 °C
15 | Cc1nc2scc(-c3ccccc3)c2c(=O)n1NC(=O)c1ccccc1Cl | 209 to 210 °C
16 | ON=Cc1ccc(Cl)cc1Cl | 134 to 136 °C
17 | NC(=S)NN=C1C2CCCC1C1(O)CCCCC1C2 (stereo unspecified) | 184 °C
18 | COC(=O)c1ccc2ncccc2c1 | 88 to 89 °C
19 | Cc1ccc(C(=O)c2nn3c(nc(=O)c4ccccc43)s2)cc1 | 211 °C
20 | COC1=CC(C)C2CC3OC(O)CC4C(C)=C(OC)C(=O)C(C2(C)C1=O)C34C (stereo unspecified) | 227 °C
21 | O=C(O)c1ccc(N=C=S)cc1 | 220 °C
22 | CC(O)[C@@]1(O)CC[C@H]2[C@@H]3CCC4(C)C[C@H](O)CC[C@]4(C)[C@H]3CC[C@@]21C (stereo partly specified) | 254 to 255 °C
23 | C=CC(Cl)(Cl)Cl | -30 °C
24 | CCCCCCCCCCCCCC(=O)OCc1ccccc1 | 20.5 °C
25 | c1ccc(C2OC2c2ccccc2)cc1 (stereo unspecified) | 67 to 70 °C
26 | COc1ccc(OCC2CO2)cc1 (stereo unspecified) | 47 °C

Row | Compound | melting point
27 | CC(=CC=C(C)C(=O)O)C(=O)O | 221 °C
28 | O=C(O)C1CCC(c2ccccc2)CC1C(=O)O (stereo unspecified) | 185 to 190 °C
29 | O=S(=O)(C[C@@H](COCc1ccccc1)OCc1ccccc1)c1ccccc1 | 55 to 56 °C
30 | CC(=O)Oc1ccc(N)cc1 | 74 °C
31 | O=Cc1cccn1S(=O)(=O)c1ccccc1 | 76 to 77 °C
32 | C[C@]12CC[C@H]3[C@@H](CC=C4C[C@@H](O)CC[C@@]43C)[C@@H]1CC[C@@H]2O | 178 to 182 °C
33 | COc1ccc(C(=CC(=O)N2CCOCC2)c2ccc(F)cc2)cc1OC | 108 °C
34 | Fc1ccc(-c2ccc(Br)cc2)cc1 | 95 to 96 °C
35 | CCC(O)C1CCCCN1 (stereo unspecified) | 121 °C
36 | COC(=O)c1cccc(C(=O)O)c1N | 160 to 167 °C
37 | O=c1cccccc1 | -7 °C
38 | CCC(c1ccc(O)c(C)c1)C(CC)c1ccc(O)c(C)c1 (stereo unspecified) | 145 °C
39 | Clc1cc2oc3cc(Cl)c(Cl)c(Cl)c3c2cc1Cl | 225 °C
40 | CC(C)S(=O)(=O)c1cnc(-c2cccnc2)nc1N | 225 to 228 °C
41 | COC(=O)C1=C(C)NC(=O)NC1c1cccc(OC)c1O (stereo unspecified) | 208 °C
42 | O=Cc1csc(-c2cccc(Cl)c2)n1 | 103 to 104 °C
43 | Cc1ccc(C=CC(=O)c2cccc([N+](=O)[O-])c2)cc1 | 143 to 146 °C
44 | CC12CCC3C(CCC(CC(=O)O)C3(C)CC(=O)O)C1CCC2=O (stereo unspecified) | 223 to 224 °C
45 | COc1cc(C(N)=O)cc(OC)c1OC | 179 °C
46 | CSc1nc(O)ns1 | 158 to 160 °C
47 | CCCc1nc(O)n(-c2ccccc2)n1 | 146 °C
48 | CC(=O)CC(=O)c1cccnc1 | 85 °C
49 | O=C(O)c1cnc2ccccn12 | 196 to 197 °C
50 | C1CCC(OC2CCCCC2)CC1 | -36 °C
51 | CC1(C)C2CCC1(CS(=O)(=O)Cl)C(=O)C2 (stereo unspecified) | 66 °C
52 | CCCCCCCCCCCCC#CC#CCO | 57 to 59 °C

Row | Compound | melting point
53 | CC1=Nc2ccccc2C1(C)C#N (stereo unspecified) | 73 °C
54 | COC1=CC=C2C3Cc4ccc(OC)c5c4C2(CCN3C)C1O5 (stereo unspecified) | 193 °C
55 | CC(C)(C)OC(=O)ON=C(C#N)c1ccccc1 | 86 to 89 °C
56 | CCOC(=O)c1c(C)sc(Sc2ccccc2[N+](=O)[O-])c1O | 144 to 146 °C
57 | C=CCn1c(N)cc(=O)n(CC)c1=O | 143 °C
58 | CC1(C)CC(=O)[C@]2(C)C=C[C@H]1N(c1ccccc1)O2 | 56.9 °C
59 | O=C1Cc2c1ccc1ccccc21 | 72 °C
60 | CCCCCCCCCCCCCCCCCC#N | 41 °C
61 | Cc1ccccc1CC(NC(=O)OCC1c2ccccc2-c2ccccc21)C(=O)O (racemic) | 157 to 164 °C
62 | O=C(O)C1(c2cccc(F)c2)CCCC1 | 149 to 153 °C
63 | CN(C)C(c1ccccc1)c1ccccc1 | 69 °C
64 | O=S(=O)(O)c1ccc(Cl)cc1 | 102 °C
65 | CC(C)CC(O)C(=O)O (racemic) | 75 to 78 °C
66 | CC(C)=CC(=O)NS(=O)(=O)c1ccc(N)cc1 | 184 °C
67 | Cc1c(Cl)c(Cl)c(C)c(Cl)c1Cl | 216 °C
68 | CCC(=O)OC1CCC2(C)C(=CCC3C2CCC2(C)C(C(C)CCCC(C)C)CCC32)C1 (stereo unspecified) | 97 to 100 °C
69 | COC(=O)C(C)Oc1ccc(Oc2ncc(C(F)(F)F)cc2Cl)cc1 (stereo unspecified) | 56 °C
70 | Cc1nc(-c2ccncc2)sc1C(=O)O | 305 °C
71 | Cc1c(O)c(Br)c(Br)c(Br)c1Br | 209 to 213 °C
72 | CC(=O)c1c(O)c(C(C)(C)C)cc(C(C)(C)C)c1O | 180 °C
73 | CCC(C)C(CC)C(N)=O (stereo unspecified) | 114 °C
74 | CCN1CCN(C(=O)NC(C(=O)NC2C(=O)N3C(C(=O)O)=C(CSc4nnnn4C)CSC23)c2ccc(O)cc2)C(=O)C1=O (stereo unspecified) | 169 °C
75 | CCC(C)(C(N)=O)c1ccccc1 (stereo unspecified) | 101 °C
76 | NCc1ccc(N2CCCC2)cc1 | 37 to 44 °C
77 | COc1cc(O)c(C(C)=O)c(O)c1 | 144 to 149 °C
78 | O=C1CC2C(CC(OC(=O)c3ccccc3)C2CO)O1 (single isomer, unassigned; (-)) | 116 to 120 °C

Row | Compound | melting point
79 | NNC(=O)c1cc2ccccc2s1 | 186 °C
80 | CN1CCN(c2ccccc2N)CC1 | 101 to 102 °C
81 | COc1ccc(OCC(N)=S)cc1 | 113 to 114 °C
82 | Cc1c(N)cccc1C(=O)O | 187 °C
83 | Cc1ccc(C(=O)COc2c(C(=O)c3ccc(Cl)c(C)c3Cl)c(C)nn2C)cc1 | 133 °C
84 | c1c2c(cc3c1OCO3)CC2 | 62 °C
85 | COc1ccc(C(=O)c2ccc(Cl)cc2)cc1OC | 109 °C
86 | COc1ccccc1CN=C=S | 28 °C
87 | O=C(N=C=S)c1ccc([N+](=O)[O-])cc1 | 90 to 92 °C
88 | COc1c(F)cc(N)cc1F | 79 °C
89 | CC1=CC(=O)CC1 | 3 to 5 °C
90 | Cc1cc(C)c(Cl)c(O)c1Cl | 87.5 °C
91 | CC(C)=CCCC(C)C1CCC2C3CC=C4CC(O)CCC4(C)C3CCC12C (stereo unspecified) | 122 °C
92 | Cc1c(C)c2c(c3c1CC3)CC2 | 105 to 116 °C
93 | CC(C)(C(=O)N1C(=O)C=CC1(C)C)C(=O)N1C(=O)C=CC1(C)C | 128 °C
94 | C=Cc1ccc(C)cc1 | -34 °C
95 | Cc1cc(C)c(N)c([N+](=O)[O-])c1 | 67 °C
96 | ClCCc1ccc(CCCl)cc1 | 47 °C
97 | CCCCOc1ccc(CC(=O)NO)cc1 | 153 °C
98 | COc1ccccc1/N=N/c1c(N)nn2c(C(F)(F)F)cc(=O)[nH]c12 | 295 °C
99 | Oc1cccnc1I | 193 °C
100 | NNC(=O)COc1ccc([N+](=O)[O-])cc1 | 189 °C
101 | O=C(O)C1(c2ccc(F)cc2)CCCC1 | 160 to 165 °C
102 | O=C(CCl)NNC(=O)c1ccccc1 | 163 to 166 °C
103 | CC1=NOC(=O)C1=NNc1ccccc1Cl | 168 °C
104 | C/C(=N\NC(=O)c1ccccn1)c1c(O)c2ccccc2n(-c2ccccc2)c1=O | 288 to 290 °C

Row | Compound | melting point
105 | O=c1ccc2cc([N+](=O)[O-])ccc2o1 | 190 to 192 °C
106 | O=C(Oc1c(F)c(F)c(F)c(F)c1F)c1ccc(-c2ccccc2)nc1 | 113 to 115 °C
107 | CCOC(=O)C1CCN(c2ccc(C#N)cc2)CC1 | 67 to 68 °C
108 | CC(=O)C(=NNc1ccccc1)c1cc(C(=NNc2ccccc2)C(C)=O)c([N+](=O)[O-])cc1[N+](=O)[O-] | 215 °C
109 | CS(=O)(=O)c1nn(-c2ccccc2)c(N)c1C#N | 190 °C
110 | CC1=C(C)C(=O)OC1=O | 96 °C
111 | O=C(O)Cn1ccnc1 | 258 to 260 °C
112 | COc1cc2c(cc1OC)C(CO)NCC2 (stereo unspecified) | 135 to 139 °C
113 | Cn1c(S)nnc1Cc1ccsc1 | 130 to 133 °C
114 | COC(=O)c1cccc(C)c1O | 29 °C
115 | Cc1ccc2nc(C)[nH]c2c1 | 203 °C
116 | CC1CCC(C)(C(=O)COC(=O)c2ccccc2)C1(C)C (stereo unspecified) | 82 °C
117 | CCC1C(C=NC(C)(C)C)=NC(C)(C)N1O (stereo unspecified) | 103 to 105 °C
118 | CCC(CC)(CBr)CBr | 40 °C
119 | CCOC(=O)C(C#N)=C(N)c1cc2cc(Br)cc(Br)c2oc1=O | 258 to 260 °C
120 | N#C/C(=N\Nc1cccc(C(F)(F)F)c1)c1nc2ccccc2[nH]1 | 270 °C
121 | CC(=O)c1ccc(C(C)=O)cc1 | 112 °C
122 | C#CCCCCCC | -60 °C
123 | Cc1ccc2cccc(Cl)c2n1 | 67 °C
124 | O=C(O)C=CC(=O)Nc1cccc2ccccc12 | 150 to 153 °C
125 | C(=N\c1cc2c(cc1CCc1ccccc1)CC(c1ccccc1)N2)/c1ccccc1 (stereo unspecified) | 118 °C
126 | O=[N+]([O-])c1ccc2c(c1)=NC(=c1ccc(=C3N=c4cc([N+](=O)[O-])ccc4=C3O)cc1)C=2O | 360 °C
